# Test results taken from ChEMBL document CHEMBL1201862, “PubChem BioAssay data set” (2004).
#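 Each compound was tested at five concentrations against cells in 96-well plates for 48 hours. GI50: concentration for 50% inhibition of growth.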 The source made the active and inactive calls. Cut-off read from the data, not from the text of the source: active = GI50 up to about 1.1 µM and inactive = higher. Where a SMILES comes first, the peptide text is derived from it. The star is where a group is joined. Cbz = O=C(OCc1ccccc1)*; Bn = c1ccc(C*)cc1
# Key:
# Test in all cases: NCI-60 cell line screen, 48 h
# DU-145 = tested on: DU-145
# MDA-N = tested on: MDA-N
# SNB-75 = tested on: SNB-75
# ACHN = tested on: ACHN
# KM12 = tested on: KM12
# IGROV-1 = tested on: IGROV-1
# SR = tested on: SR
# M14 = tested on: M14
# LXFL 529 = tested on: LXFL 529
# OVCAR-3 = tested on: OVCAR-3
# NCI-H23 = tested on: NCI-H23
# HCT-15 = tested on: HCT-15
# UACC-257 = tested on: UACC-257
# PC-3 = tested on: PC-3
# MCF7 = tested on: MCF7
# OVCAR-4 = tested on: OVCAR-4
# UACC-62 = tested on: UACC-62
# NCI-H522 = tested on: NCI-H522
# 786-0 = tested on: 786-0
# DMS-114 = tested on: DMS-114
Structure (SMILES),GI50 (DU-145),GI50 (MDA-N),GI50 (SNB-75),GI50 (ACHN),GI50 (KM12),GI50 (IGROV-1),GI50 (SR),GI50 (M14),GI50 (LXFL 529),GI50 (OVCAR-3),GI50 (NCI-H23),GI50 (HCT-15),GI50 (UACC-257),GI50 (PC-3),GI50 (MCF7),GI50 (OVCAR-4),GI50 (UACC-62),GI50 (NCI-H522),GI50 (786-0),GI50 (DMS-114)
N/C(S)=N/N=C/c1ccc(O)cn1,2.96 µM (inactive),8.45 µM (inactive),9.06 µM (inactive),1.73 µM (inactive),11.1 µM (inactive),21.3 µM (inactive),1.64 µM (inactive),5.11 µM (inactive),19.7 µM (inactive),3.52 µM (inactive),6.11 µM (inactive),9.08 µM,22.4 µM (inactive),7.1 µM (inactive),3.18 µM (inactive),,,,,
COc1cc(OC)c2nc(C)c3c(c2c1)OCC3,> 100 µM (inactive),> 100 µM (inactive),61.2 µM (inactive),> 100 µM (inactive),> 100 µM (inactive),> 100 µM (inactive),> 100 µM (inactive),> 100 µM (inactive),,> 100 µM (inactive),> 100 µM (inactive),> 100 µM,> 100 µM (inactive),> 100 µM (inactive),> 100 µM (inactive),> 100 µM (inactive),44.8 µM (inactive),72.9 µM (inactive),61.1 µM (inactive),
C1CCC(OCc2nnn3c2CCC3)OC1 (stereo unspecified),,,> 100 µM (inactive),> 100 µM (inactive),> 100 µM (inactive),> 100 µM (inactive),> 100 µM (inactive),> 100 µM (inactive),> 100 µM (inactive),> 100 µM (inactive),> 100 µM (inactive),> 100 µM,> 100 µM (inactive),,,> 100 µM (inactive),> 100 µM (inactive),> 100 µM (inactive),,
C=CC[N+](CCO)(CCO)CCCCCCCCCCCCCCCCCC,,,2.43 µM (inactive),,1.99 µM (inactive),1.97 µM (inactive),,,,5.11 µM (inactive),12.5 µM (inactive),12.8 µM,6.38 µM (inactive),,7.1 µM (inactive),3.88 µM (inactive),4.58 µM (inactive),3.77 µM (inactive),,3.96 µM (inactive)
CC1(c2nc3ccccc3[nH]2)CCC(CO)C(C)(C)O1 (stereo unspecified),> 100 µM (inactive),> 100 µM (inactive),> 100 µM (inactive),> 100 µM (inactive),> 100 µM (inactive),> 100 µM (inactive),16.1 µM (inactive),> 100 µM (inactive),,> 100 µM (inactive),> 100 µM (inactive),> 100 µM,> 100 µM (inactive),> 100 µM (inactive),> 100 µM (inactive),> 100 µM (inactive),> 100 µM (inactive),> 100 µM (inactive),> 100 µM (inactive),
CCOC(=O)C1(Cc2ccc3ccccc3c2)CCCCC(=O)N1 (stereo unspecified),,,0.286 µM (active),67.5 µM (inactive),,57 µM (inactive),,39.3 µM (inactive),38 µM (inactive),17.5 µM (inactive),26 µM (inactive),28.8 µM,,,,36.1 µM (inactive),36.1 µM (inactive),,38.8 µM (inactive),18.6 µM (inactive)
COC(=O)C(Cc1ccc(O)cc1)NC(=O)C(COCc1ccccc1)NC(=O)OCc1ccccc1 (stereo unspecified) (Cbz-Ser(Bn)-Tyr-OMe; configuration not given here),17.3 µM (inactive),17.6 µM (inactive),14.9 µM (inactive),17.4 µM (inactive),19.8 µM (inactive),17.6 µM (inactive),> 100 µM (inactive),19.4 µM (inactive),,17.7 µM (inactive),20.1 µM (inactive),18.8 µM,19.3 µM (inactive),19.1 µM (inactive),19.3 µM (inactive),19.4 µM (inactive),17 µM (inactive),22.5 µM (inactive),,
COc1ccc(N2C(=O)c3c4c(c5c([nH]c6ncccc65)c3C2=O)CCC(C(C)(C)C)C4)cc1 (stereo unspecified),> 100 µM (inactive),> 100 µM (inactive),16.8 µM (inactive),40.6 µM (inactive),> 100 µM (inactive),> 100 µM (inactive),> 100 µM (inactive),> 100 µM (inactive),,> 100 µM (inactive),67 µM (inactive),> 100 µM,> 100 µM (inactive),> 100 µM (inactive),> 100 µM (inactive),> 100 µM (inactive),30.3 µM (inactive),67.3 µM (inactive),35.6 µM (inactive),
C/C=C/c1cc2c(c(=O)o1)C(=O)[C@@H](O)[C@H](C)O2,,,18.7 µM (inactive),,14.4 µM (inactive),8.32 µM (inactive),,,,17.7 µM (inactive),17 µM (inactive),11.2 µM,14.4 µM (inactive),,4.08 µM (inactive),15.4 µM (inactive),17.5 µM (inactive),7.91 µM (inactive),,6.75 µM (inactive)
